The nature of data set [1]: Concentration in tissue (human, oral administration): epithelial lining fluid, alveolar macrophages, plasma. Format: in vivo. Conditions: male, oral single dose 75 mg; for Kp: over 1 to 24 hours. Here is the method: Concentration of compound D in lung tissue (epithelial lining fluid and alveolar macrophages) and plasma was measured to investigate intrapulmonary distribution of compound D after oral single administration of this drug, with reference to a method in Document (Antimicrobial Agents and Chemotherapy, February 2010, pp. 866-870).
The measurement was as follows. Healthy adult male volunteers were given oral single dose of compound D (75 mg). The bronchoalveolar lavage fluid and blood samples were collected from the subjects at 1, 2, 4, 6, and 24 hours after the administration. The collection of the fluid and blood samples was carried out at each time point for six subjects. The bronchoalveolar lavage fluid was centrifuged to separate from epithelial lining fluid and alveolar macrophages for measurement of the drug concentration. The concentrations of compound D in lung tissue and plasma were measured by LC/MS/MS.

For the next data set, the system named is S. pneumoniae SF9863. As to the kind of experiment: microbe, parasite or virus in culture. Format: cell-based. Conditions: Streptococcus pneumoniae.
For another data set, the system named is S. pneumoniae SN9981. The experiment in a line: microbe, parasite or virus in culture. Format: cell-based. The following applies: Streptococcus pneumoniae.
Data set [2] in a line: AUC and Cmax, plasma concentration by HPLC after repeated oral doses. Format: in vivo. Conditions: male, human, Japanese healthy adult males, oral 75 mg once daily for seven days, day 7, plasma. On the procedure: Six Japanese healthy adult males received oral doses of 75 mg compound D once daily for seven consecutive days. The plasma concentration of compound D was measured by the HPLC method, and the pharmacokinetic parameters were calculated.

Data set [3] is described as follows: Clinical efficacy (cure rate) in patients with community-acquired pneumonia. Conditions: oral 75 mg once daily for 7 days, seven days after treatment completion. Format: in vivo, human. Here is the method: We investigated efficacy of compound D for the patients with community-acquired pneumonia. 50 patients with community-acquired pneumonia were orally administered 75 mg of compound D once daily for 7 days. The clinical efficacy (cure rate) was evaluated at seven days after treatment completion. The clinical trial was performed in accordance with a part of evaluation on patients with community-acquired pneumonia (pp. 34 to 38) in “general guidelines for the evaluation of new antimicrobial agents for the treatment of respiratory tract infections (second version).”

Data set [4] deals with S. pneumoniae ATCC49619. As to the kind of experiment: microbe, parasite or virus in culture. Format: cell-based. Conditions: Streptococcus pneumoniae.
Data set [5] relates to S. pneumoniae ATCC49619. As to the kind of experiment: Frequency of development of resistant bacteria. Format: cell-based, Streptococcus pneumoniae. The following applies: for FREQUENCY OF DEVELOPMENT OF RESISTANT BACTERIA (AVERAGE OF TWO MEASURED VALUES): about 70 hours. Here is the method:
S. aureus ATCC29213 is Staphylococcus aureus, S. pneumoniae ATCC49619 is Streptococcus pneumoniae, and E. coli ATCC25922 is Escherichia coli. […]
The frequency of development of resistant bacteria was calculated by dividing the number of colonies developed on an agar medium having each drug concentration by the number of initially inoculated bacteria.

For data set [6], the target named is DNA gyrase derived from S. aureus (Staphylococcus aureus, UniProt P0A0K8+P20831). As to the kind of experiment: Enzyme inhibitory activity, supercoiling of relaxed pBR322. Format: biochemical. Here is the method:
(§1) Agents Chemother. 45: 3544-3547 (2001). […] The measurement was performed in the same manner as in Test Example 3. Similarly, the inhibitory activities of ciproxacin, levofloxacin, and garenoxacin were measured. The results were compared.

Data set [7] addresses QUINOLONE RESISTANT DNA gyrase (quinolone-resistant S. aureus) (Staphylococcus aureus, UniProt P20831). The description is as above. Format: biochemical. Here is the method:
as §1

The target in data set [8] is DNA gyrase derived from S. pneumoniae IID553 (Streptococcus pneumoniae serotype 4, UniProt P0A4L9+P72524). Described as above.
For data set [9] the following is noted: human, 2.5 to 3.5 hours after administration; cited from earlier work.
For data set [10] the following is noted: consecutive administration, daily dose of 400 mg; cited from earlier work.
For data set [11] the following is noted: 400 mg, patients with bacterial pneumonia; cited from earlier work.
The mark [12] stands for this setting: alveolar macrophages, read-out: TISSUE DISTRIBUTION RATIO, ALVEOLAR MACROPHAGES
The mark [13] stands for this setting: epithelial lining fluid, read-out: TISSUE DISTRIBUTION RATIO, ALVEOLAR EPITHELIAL LINING FLUID.
[14] abbreviates: S. pneumoniae ATCC49619, 4 × MIC.
Setting [15] is: S. pneumoniae ATCC49619, 8 × MIC.
The mark [16] stands for this setting: S. pneumoniae ATCC49619, 16 × MIC.

≈ marks a conversion by molar mass, not a printed value. Like-named read-outs stand apart in the source and are kept apart here.

Turning to `COc1c(N2C[C@H](CNC3CC3)[C@H](F)C2)c(F)cc2c(=O)c(C(=O)O)cn(CCF)c12.Cl` [Compound D, 7-[(3S,4S)-3-{(cyclopropylamino)methyl}-4-fluoropyrrolidine-1-yl]-6-fluoro-1-(2-fluoroethyl)-8-methoxy-4-oxo-1,4-dihydroquinoline-3-carboxylic acid hydrochloride], the Kp at 1 h in data set [1] (setting [12]) is 31.9; in data set [1] (setting [13]), 22.5. The Kp at 2 h worked out at 18.5 in data set [1] (setting [12]) and 18.4 in data set [1] (setting [13]). For the same compound, the Kp at 4 h in data set [1] (setting [12]) turned out to be 21.9; in data set [1] (setting [13]), 16.5. Also, the Kp at 6 h in data set [1] (setting [12]) amounted to 56.4; in data set [1] (setting [13]) it was 15.2. The figures for the Kp at 24 h in data set [1] (setting [12]) and in [1] (setting [13]) were 38 and 15, respectively. The Kp in data set [1] (alveolar macrophages, read-out: tissue distribution ratio in alveolar macrophages, range) fell in the range of 18.5 to 56.4; in [1] (epithelial lining fluid, read-out: tissue distribution ratio in epithelial lining fluid, range) it was 15 to 22.5. The results for the MIC in the data set with S. pneumoniae SF9863, in the data set on S. pneumoniae SN9981 and with S. pneumoniae ATCC49619 [4] were 0.06 µg/mL, 0.25 µg/mL and 0.06 µg/mL, respectively. Moreover, the AUC in data set [2] (read-out: area under the curve (AUC)) turned out to be 20600 ng·h/mL. The Cmax in [2] (read-out: maximum drug concentration (Cmax)) stood at 998 ng/mL. The “clinical efficacy (cure rate)” value in [3] amounted to 90.0%. For the same compound, the “development of resistant bacteria (in words)” value in the data set on S. pneumoniae ATCC49619 [5] (S. pneumoniae ATCC49619, 4 to 16 × MIC) is on record as “not observed”. Also, the “FREQUENCY OF DEVELOPMENT OF RESISTANT BACTERIA (AVERAGE OF TWO MEASURED VALUES)” value in the data set with S. pneumoniae ATCC49619 [5] (setting [14]), with S. pneumoniae ATCC49619 [5] (setting [15]) and in the data set on S. pneumoniae ATCC49619 [5] (setting [16]) was <1.1 × 10^−8 each time. Moreover, the IC50 was 3.57 µM in [6]; 35.7 µM in [7] (read-out: IC50 VALUE, QUINOLONE RESISTANT DNA gyrase, average of three or average ± SD); 12.6 µM in data set [8].

Turning to `C[C@H]1NCc2cc(-c3ccc4c(=O)c(C(=O)O)cn(C5CC5)c4c3OC(F)F)ccc21` [GRNX, garenoxacin], the MIC against S. pneumoniae SF9863 was found to be 0.25 µg/mL (≈ 0.586 µM); against S. pneumoniae SN9981, 1 µg/mL (≈ 2.35 µM); against S. pneumoniae ATCC49619 [4], 0.06 µg/mL (≈ 0.141 µM). Further, the “FREQUENCY OF DEVELOPMENT OF RESISTANT BACTERIA (AVERAGE OF TWO MEASURED VALUES)” value in the data set with S. pneumoniae ATCC49619 [5] (setting [14]), with S. pneumoniae ATCC49619 [5] (setting [15]) and with S. pneumoniae ATCC49619 [5] (setting [16]) was <1.1 × 10^−8 throughout. Further, the IC50 in data set [6] (S. aureus enzyme, average of three or average ± SD, read-out: IC50 VALUE, DNA gyrase (converted)) was 25.8 µM; in data set [7] (average of three or average ± SD, read-out: IC50 VALUE, QUINOLONE RESISTANT DNA gyrase (converted)), 985 µM; in data set [8], 84.4 µM. The “tissue distribution ratio in the alveolar macrophages” value in data set [9] was 11.15±8.16. Moreover, the “tissue distribution ratio in the epithelial lining fluid” value in data set [9] is listed as 0.95±0.41. The AUC in data set [10] is 110900 ng·h/mL. For the same compound, the Cmax in [10] was 11060 ng/mL. In addition, the clinical efficacy rate in [11] is 94.9%.

What is called AUC is the area under the concentration-time curve, a measure of exposure. The IC50 is the point on the concentration scale where inhibition reaches its midpoint.

These data come from patent publication US20180042918A1, “RESPIRATORY INFECTION TREATING AGENT” (KYORIN PHARMACEUTICAL CO., LTD., priority 2015, published 2018).
